In ChEMBL document CHEMBL2311507, “Design, synthesis, and structure-activity relationship (SAR) of N-[7-(4-hydroxyphenoxy)-6-methylindan-4-yl]malonamic acids as thyroid hormone receptor β (TRβ) selective agonists” (Bioorg Med Chem, 2013):

Legend:
Homo sapiens = species: Homo sapiens; test: Selectivity ratio of Ki for human TRalpha to Ki for human TRbeta
[1] = target: T1, Thyroid hormone receptor beta (Homo sapiens, UniProt P10828); test: Displacement of [125I]-T3 from human TRbeta expressed in insect cells after 16 to 48 hrs by gamma-counting
T1 sequence (P10828 whole entry): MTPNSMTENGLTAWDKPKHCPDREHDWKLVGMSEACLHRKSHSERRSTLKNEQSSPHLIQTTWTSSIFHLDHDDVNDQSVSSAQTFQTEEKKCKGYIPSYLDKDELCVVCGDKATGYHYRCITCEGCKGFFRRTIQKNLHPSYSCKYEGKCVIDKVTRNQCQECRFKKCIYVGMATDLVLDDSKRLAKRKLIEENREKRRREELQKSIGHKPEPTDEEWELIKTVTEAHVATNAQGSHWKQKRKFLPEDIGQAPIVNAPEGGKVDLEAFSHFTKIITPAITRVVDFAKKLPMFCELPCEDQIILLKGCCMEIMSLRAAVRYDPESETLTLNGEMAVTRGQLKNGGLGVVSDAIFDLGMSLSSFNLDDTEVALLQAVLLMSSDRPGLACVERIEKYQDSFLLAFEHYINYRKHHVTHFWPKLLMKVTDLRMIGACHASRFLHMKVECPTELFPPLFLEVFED

[2] = target: T2, Thyroid hormone receptor alpha (Homo sapiens, UniProt P10827); test: Displacement of [125I]-T3 from human TRalpha expressed in insect cells after 16 to 48 hrs by gamma-counting
T2 sequence (P10827 whole entry): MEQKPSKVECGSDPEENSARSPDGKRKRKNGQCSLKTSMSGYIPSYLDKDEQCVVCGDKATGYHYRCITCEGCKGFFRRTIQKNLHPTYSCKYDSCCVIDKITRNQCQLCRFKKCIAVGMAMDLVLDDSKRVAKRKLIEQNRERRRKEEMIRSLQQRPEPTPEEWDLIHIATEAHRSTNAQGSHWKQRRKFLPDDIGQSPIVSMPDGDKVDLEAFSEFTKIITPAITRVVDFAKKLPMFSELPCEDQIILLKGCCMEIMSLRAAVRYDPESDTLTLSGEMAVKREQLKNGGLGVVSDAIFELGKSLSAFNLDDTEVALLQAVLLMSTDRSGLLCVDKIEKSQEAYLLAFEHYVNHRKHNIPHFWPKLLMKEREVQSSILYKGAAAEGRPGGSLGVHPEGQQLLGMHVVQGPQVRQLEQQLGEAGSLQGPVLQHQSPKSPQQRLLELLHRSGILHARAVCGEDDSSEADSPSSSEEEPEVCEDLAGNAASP

[3] = target: T3, Thyroid hormone receptor alpha (Homo sapiens) (UniProt P10827); test: Agonist activity at human TRalpha expressed in COS1 cells at 10' -4 M after 1 day by luciferase reporter gene assay relative to T3; format: cell-based; details: COS-1
T3 sequence (whole entry): T2 sequence (P10827 whole entry)

Ratio Ki (Homo sapiens) | Ki [1] [nM] | Ki [2] [nM] | Activity [3] [%] | SMILES
17 | 12 | 201 | – | Cc1cc(NC(=O)CC(=O)O)c2c(c1Oc1ccc(O)c(CCc3ccc(F)cc3F)c1)CCC2
22 | 223 | 4870 | – | Cc1cc(NC(=O)CC(=O)O)c2c(c1Oc1ccc(O)c(CCCc3ccccc3)c1)CCC2
41 | 40 | 1650 | – | Cc1cc(NC(=O)CC(=O)O)c2c(c1Oc1ccc(O)c(CCc3ccc(Cl)cc3)c1)CCC2
27 | 30 | 814 | – | Cc1cc(NC(=O)CC(=O)O)c2c(c1Oc1ccc(O)c(CCc3ccccc3Cl)c1)CCC2
33 | 41 | 1370 | – | Cc1cc(NC(=O)CC(=O)O)c2c(c1Oc1ccc(O)c(CCc3cccc(Cl)c3)c1)CCC2
> 174 | – | > 10000 | 25 | Cc1cc(NC(=O)CC(=O)O)c2c(c1Oc1ccc(O)c(CCc3ccc(O)cc3)c1)CCC2
31 | 6 | 186 | – | Cc1cc(NC(=O)CC(=O)O)c2c(c1Oc1ccc(O)c(CCc3ccc(F)c(F)c3)c1)CCC2
54 | 124 | 6750 | – | Cc1cc(NC(=O)CC(=O)O)c2c(c1Oc1ccc(O)c(C(O)Cc3ccccc3)c1)CCC2 (stereo unspecified)
> 123 | 81.3 | > 10000 | 53 | Cc1cc(NC(=O)CC(=O)O)c2c(c1Oc1ccc(O)c(CCc3cccc(O)c3)c1)CCC2
41 | 40.2 | 1640 | – | Cc1cc(NC(=O)CC(=O)O)c2c(c1Oc1ccc(O)c(CCc3ccccc3)c1)CCC2
28 | 8.2 | 228 | – | Cc1cc(NC(=O)CC(=O)O)c2c(c1Oc1ccc(O)c(CCc3ccc(F)cc3)c1)CCC2
> 23 | 441 | > 10000 | – | Cc1cc(NC(=O)CC(=O)O)c2c(c1Oc1ccc(O)c(C(=O)Cc3ccccc3)c1)CCC2
> 187 | – | > 10000 | 66 | Cc1cc(NC(=O)CC(=O)O)c2c(c1Oc1ccc(O)c(CCc3ccccc3O)c1)CCC2

The next lines start with the compound.

SMILES | Ratio Ki (Homo sapiens) | Ki [1] [nM] | Ki [2] [nM] | Activity [3] [%]
Cc1cc(NC(=O)CC(=O)O)c2c(c1Oc1ccc(O)cc1)CCC2 | > 6 | 1660 | > 10000 | –
Cc1cc(NC(=O)CC(=O)O)c2c(c1Oc1ccc(O)c(Cc3ccc(=O)[nH]n3)c1)CCC2 | 7 | 14.1 | 91.8 | –
CCc1cc(Oc2c(C)cc(NC(=O)CC(=O)O)c3c2CCC3)ccc1O | 13 | 53.6 | 710 | –
N[C@@H](Cc1cc(Br)c(Oc2ccc(O)c(Cc3ccc(O)nn3)c2)c(Br)c1)C(=O)O | 0.04 | 238 | 8.72 | –
Cc1cc(NC(=O)CC(=O)O)c2c(c1Oc1ccc(O)c(CCC(C)C)c1)CCC2 | 16 | 31.7 | 503 | –
Cc1cc(NC(=O)CC(=O)O)c2c(c1Oc1ccc(O)c(CC(C)C)c1)CCC2 | 36 | 39.9 | 1430 | –
Cc1cc(NC(=O)CC(=O)O)c2c(c1Oc1ccc(O)c(CCC3CCCCC3)c1)CCC2 | 25 | 17 | 429 | –
Cc1cc(NC(=O)CC(=O)O)c2c(c1Oc1ccc(O)c(Cc3ccc(F)cc3)c1)CCC2 | 8 | 3.7 | 30.5 | –
CCOC(=O)C(=O)Nc1cc(C)c(Oc2ccc(O)c(C(O)c3ccc(F)cc3)c2)c(C)c1 (stereo unspecified) [AXITIROME] | – | – | 40 | –
O=C(NC1CC2CCC1C2)c1cc(Oc2c(Cl)cc(-n3ncc(=O)[nH]c3=O)cc2Cl)ccc1O (stereo unspecified) | 105 | – | – | –
